Target: T1, AXL kinase (Homo sapiens, UniProt P30530)
T1 construct: purchased Invitrogen PV4803
T1 sequence (P30530 26-894): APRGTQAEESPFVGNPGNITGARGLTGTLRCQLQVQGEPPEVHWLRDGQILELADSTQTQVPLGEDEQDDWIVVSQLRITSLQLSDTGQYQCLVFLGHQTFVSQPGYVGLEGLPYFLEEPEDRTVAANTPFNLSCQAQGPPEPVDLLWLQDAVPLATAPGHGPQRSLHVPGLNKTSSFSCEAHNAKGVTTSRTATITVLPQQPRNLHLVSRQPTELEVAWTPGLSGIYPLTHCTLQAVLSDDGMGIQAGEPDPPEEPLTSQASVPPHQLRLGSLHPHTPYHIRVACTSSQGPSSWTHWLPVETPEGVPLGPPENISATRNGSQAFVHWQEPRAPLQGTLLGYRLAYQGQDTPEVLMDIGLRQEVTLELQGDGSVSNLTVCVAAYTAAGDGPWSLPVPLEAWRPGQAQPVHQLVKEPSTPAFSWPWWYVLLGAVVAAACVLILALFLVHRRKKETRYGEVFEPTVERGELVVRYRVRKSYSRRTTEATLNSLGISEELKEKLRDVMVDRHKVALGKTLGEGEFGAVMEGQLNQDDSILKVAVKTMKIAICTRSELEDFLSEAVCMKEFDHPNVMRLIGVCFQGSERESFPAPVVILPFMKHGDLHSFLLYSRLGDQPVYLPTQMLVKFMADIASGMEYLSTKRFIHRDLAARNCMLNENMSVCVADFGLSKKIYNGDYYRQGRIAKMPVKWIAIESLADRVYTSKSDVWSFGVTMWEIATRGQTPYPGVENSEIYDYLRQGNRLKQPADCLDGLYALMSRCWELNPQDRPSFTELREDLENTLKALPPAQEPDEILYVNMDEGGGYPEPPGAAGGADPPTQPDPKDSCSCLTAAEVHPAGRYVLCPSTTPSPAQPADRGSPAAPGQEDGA
Assay: IC50 test on AXL kinase (Z′-LYTE FRET kinase activity detection)
Type: biochemical
Conditions: Z′-LYTE FRET peptide assay, 1 h reaction
From the text: Kinase activity detection: The activity of compounds on kinases was detected by a secondary reaction which used the Z′-LYTE™ technique (a detection using fluorescence, enzyme coupling, and based on differences in susceptibility of phosphorylated and non-phosphorylated polypeptides to proteolytic cleavage), followed the fluorescence resonance energy transfer (FRET) principle, and used Z′-LYTE™ FRET peptide substrates (Invitrogen, Z′-LYTE™ KINASE ASSAY KIT—TYR 2 PEPTIDE, PV3191). AXL kinase (invitrogen, PV4803) was diluted stepwise, FRET peptide was then added, followed by ATP, then by compounds at different concentrations, reacted for 1 h, site-specific proteases were then added to recognize and cleave non-phosphorylated FRET peptides, reacted for 1 h, and […] at 445 nm and 520 nm were detected using excitation wavelength of 400 nm.

Compound	IC50
Cc1c(C(=O)Nc2ccc(Oc3ncnc4[nH]cc(-c5ccccc5)c34)c(F)c2)c(=O)c2ccc(Cl)cc2n1C [TL50080, 7-chloro-N-(3-fluoro-4-((5-phenyl-7H-pyrrolo[2,3-d]pyrimidin-4-yl)oxy)phenyl)-1,2-dimethyl-4-oxo-1,4-dihydroquinoline-3-carboxamide]	> 10000 nM
Cc1c(C(=O)Nc2ccc(Oc3ccnc4[nH]nc(-c5ccccc5)c34)c(F)c2)c(=O)c2cc(Cl)ccc2n1C [TL50025, 6-chloro-N-(3-fluoro-4-((3-phenyl-1H-pyrazolo[3,4-b]pyridin-4-yl)oxy)phenyl)-1,2-dimethyl-4-oxo-1,4-dihydroquinoline-3-carboxamide]	569 nM
Cc1c(C(=O)Nc2ccc(Oc3ccnc4[nH]ccc34)c(F)c2)c(=O)c2cc(Cl)ccc2n1C [TL50090, N-(4-((1H-pyrrolo[2,3-b]pyridin-4-yl)oxy)-3-fluorophenyl)-6-chloro-1,2-dimethyl-4-oxo-1,4-dihydroquinoline-3-carboxamide]	2630 nM
Cc1c(C(=O)Nc2ccc(Oc3ncnc4[nH]cc(-c5ccccc5)c34)c(F)c2)c(=O)c2c(Cl)cccc2n1C [TL50081, 5-chloro-N-(3-fluoro-4-((5-phenyl-7H-pyrrolo[2,3-d]pyrimidin-4-yl)oxy)phenyl)-1,2-dimethyl-4-oxo-1,4-dihydroquinoline-3-carboxamide]	> 10000 nM
CC1COc2c(N3CCN(C)CC3)c(F)cc3c(=O)c(C(=O)Nc4ccc(Oc5ncnc6[nH]cc(-c7ccccc7)c56)c(F)c4)cn1c23 (stereo not drawn) [TL4800088, 9-fluoro-N-(3-fluoro-4-((5-phenyl-7H-pyrrolo[2,3-d]pyrimidin-4-yl)oxy)phenyl)-3-methyl-10-(4-methylpiperazin-1-yl)-7-oxo-3,7-dihydro-2H-[1,4]oxazino[2,3,4-ij]quinoline-6-carboxamide]	429 nM
COc1cc2ncnc(Oc3ccc(NC(=O)c4cn(CCF)c5c(F)c(N6CCN(C)CC6)c(F)cc5c4=O)cc3F)c2cc1OC [TL4830040, N-(4-(6,7-dimethoxyquinazolin-4-yloxy)-3-fluorophenyl)-6,8-difluoro-1-(2-fluoroethyl)-7-(4-methylpiperazin-1-yl)-4-oxo-1,4-dihydroquinoline-3-carboxamide]	224 nM
CCc1ccc2c(c1)c(=O)c(C(=O)Nc1ccc(Oc3ncnc4[nH]ccc34)c(F)c1)c(C)n2C [TL4800147]	157 nM
Cc1c(C(=O)Nc2ccc(Oc3ncnc4[nH]cc(-c5ccccc5)c34)c(F)c2)c(=O)c2cc(C3=CCCC3)ccc2n1C [TL50160, 6-cyclopentenyl-N-(3-fluoro-4-((5-phenyl-7H-pyrrolo[2,3-d]pyrimidin-4-yl)oxy)phenyl)-1,2-dimethyl-4-oxo-1,4-dihydroquinoline-3-carboxamide]	4530 nM
C=C(C)c1ccc2c(c1)c(=O)c(C(=O)Nc1ccc(Oc3ncnc4[nH]cc(-c5ccccc5)c34)c(F)c1)c(C)n2C [TL50167, N-(3-fluoro-4-(5-phenyl-7H-pyrrolo[2,3-d]pyrimidin-4-yloxy)phenyl)-1,2-dimethyl-4-oxo-6-(prop-1-en-2-yl)-1,4-dihydroquinoline-3-carboxamide]	324 nM
Cc1ccc2c(c1)c(=O)c(C(=O)Nc1ccc(Oc3ncnc4[nH]cc(-c5ccccc5)c34)c(F)c1)c(C)n2C [TL50115, N-(3-fluoro-4-(5-phenyl-7H-pyrrolo[2,3-d]pyrimidin-4-yloxy)phenyl)-1,2,6-trimethyl-4-oxo-1,4-dihydroquinoline-3-carboxamide]	102 nM
CCc1ccc2c(c1)c(=O)c(C(=O)Nc1ccc(Oc3ccnc(NCc4ccccc4)c3)c(F)c1)c(C)n2C	> 10000 nM
O=C(Nc1ccc(Oc2ncnc3[nH]cc(-c4ccccc4)c23)c(F)c1)c1cn(C2CC2)c2cc(N3CCNCC3)c(F)cc2c1=O [TL4800095, 1-cyclopropyl-6-fluoro-N-(3-fluoro-4-((5-phenyl-7H-pyrrolo[2,3-d]pyrimidin-4-yl)oxy)phenyl)-4-oxo-7-(piperazin-1-yl)-1,4-dihydroquinoline-3-carboxamide]	110 nM
CCc1ccc2c(c1)c(=O)c(C(=O)Nc1ccc(Oc3ccnc(C(N)=O)c3)c(F)c1)c(C)n2C [GDL5000045, N-(4-(2-carbamoylpyridin-4-yloxy)-3-fluorophenyl)-6-ethyl-1,2-dimethyl-4-oxo-1,4-dihydroquinoline-3-carboxamide]	4380 nM
Cc1c(C(=O)Nc2ccc(Oc3ncnc4[nH]cc(-c5ccccc5)c34)c(F)c2)c(=O)c2cc(Br)ccc2n1C [TL50133, 6-bromo-N-(3-fluoro-4-((5-phenyl-7H-pyrrolo[2,3-d]pyrimidin-4-yl)oxy)phenyl)-1,2-dimethyl-4-oxo-1,4-dihydroquinoline-3-carboxamide]	3120 nM
Cc1c(C(=O)Nc2ccc(Oc3ncnc4[nH]cc(-c5ccccc5)c34)c(F)c2)c(=O)c2ccc(C(F)(F)F)cc2n1C [TL50086, N-(3-fluoro-4-(5-phenyl-7H-pyrrolo[2,3-d]pyrimidin-4-yloxy)phenyl)-1,2-dimethyl-4-oxo-7-(trifluoromethyl)-1,4-dihydroquinoline-3-carboxamide]	> 10000 nM
CCc1cc2c(=O)c(C(=O)Nc3ccc(Oc4ncnc5cc(OC)c(OC)cc45)c(F)c3)c(C)n(C)c2cc1N1CCN(C)CC1 [TL4830071, N-(4-(6,7-dimethoxyquinazolin-4-yloxy)-3-fluorophenyl)-6-ethyl-1,2-dimethyl-7-(4-methylpiperazin-1-yl)-4-oxo-1,4-dihydroquinoline-3-carboxamide]	14.8 nM
Cc1cc2c3c(c1)c(=O)c(C(=O)Nc1ccc(Oc4ncnc5[nH]cc(-c6ccccc6)c45)c(F)c1)cn3CCC2 [TL4800160, N-(3-fluoro-4-((5-phenyl-7H-pyrrolo[2,3-d]pyrimidin-4-yl)oxy)phenyl)-9-methyl-1-oxo-1,5,6,7-tetrahydropyrido[3,2,1-ij]quinoline-2-carboxamide]	129 nM
CC1CCc2c(N3CCC(O)CC3)c(F)cc3c(=O)c(C(=O)Nc4ccc(Oc5ncnc6[nH]cc(-c7ccccc7)c56)c(F)c4)cn1c23 (stereo not drawn) [GDL5000076, 9-fluoro-N-(3-fluoro-4-((5-phenyl-7H-pyrrolo[2,3-d]pyrimidin-4-yl)oxy)phenyl)-8-(4-hydroxypiperidin-1-yl)-5-methyl-1-oxo-1,5,6,7-tetrahydropyrido[3,2,1-ij]quinoline-2-carboxamide]	627 nM
Cc1ccc2c(c1)c(=O)c(C(=O)Nc1ccc(Oc3ncnc4[nH]cc(-c5ccccc5)c34)c(F)c1)c(-c1ccccc1)n2C [TL4800144, N-(3-fluoro-4-(5-phenyl-7H-pyrrolo[2,3-d]pyrimidin-4-yloxy)phenyl)-1,6-dimethyl-4-oxo-2-phenyl-1,4-dihydroquinoline-3-carboxamide]	78 nM
Cc1c(C(=O)Nc2ccc(Oc3ncnc4[nH]cc(-c5ccccc5)c34)c(F)c2)c(=O)c2cc(C3CCCC3)ccc2n1C [TL50161, 6-cyclopentyl-N-(3-fluoro-4-((5-phenyl-7H-pyrrolo[2,3-d]pyrimidin-4-yl)oxy)phenyl)-1,2-dimethyl-4-oxo-1,4-dihydroquinoline-3-carboxamide]	195 nM
Cc1c(C(=O)Nc2ccc(Oc3ncnc4[nH]cc(-c5ccccc5)c34)c(F)c2)c(=O)c2cc(C3CC3)ccc2n1C [TL50148, 6-cyclopropyl-N-(3-fluoro-4-((5-phenyl-7H-pyrrolo[2,3-d]pyrimidin-4-yl)oxy)phenyl)-1,2-dimethyl-4-oxo-1,4-dihydroquinoline-3-carboxamide]	227 nM

— patent US10683278B2 (JINAN UNIVERSITY, priority 2015, dated 2020)
